Assay results: patent US20210238162A1, “CHEMICAL COMPOUNDS” (GlaxoSmithKline Intellectual Property Development Limited, priority 2015, published 2021)
Structures can show the parent of a compound that is named as a salt.

Target: T1, haematopoietic prostaglandin D synthase (H-PGDS) (Homo sapiens, UniProt O60760)
T1 construct: Full length human H-PGDS cDNA (Invitrogen Ultimate ORF IOH13026) was amplified by PCR; made in house; host or cells: E. coli BL21 (DE3*), vector pET22b+
Experiment: H-PGDS RapidFire High Throughput Mass Spectrometry Assay
Format: biochemical
Conditions: H-PGDS RapidFire MS assay, mean pIC50; read-out: Potency Range (mean pIC50) (converted)
Outline: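 PGH2 (~10 μM burst) generated in situ from arachidonic acid by FLAG-tagged human COX-2 (Sf9-expressed), then converted to PGD2 by full-length human His-tagged H-PGDS from E. coli. PGD2 and PGF2α (substrate surrogate) quantified by RapidFire SPE-triple quadrupole MS; percent conversion calculated.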

T1 sequence (O60760 whole entry): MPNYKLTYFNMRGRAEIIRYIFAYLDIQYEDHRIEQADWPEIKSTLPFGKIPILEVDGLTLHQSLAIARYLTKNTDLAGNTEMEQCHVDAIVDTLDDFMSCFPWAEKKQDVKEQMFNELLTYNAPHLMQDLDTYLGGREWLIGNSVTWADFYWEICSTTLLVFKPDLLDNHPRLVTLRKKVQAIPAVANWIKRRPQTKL

SMILES | IC50 [nM]
CC(C)(N[C@H]1CC[C@H](NC(=O)c2cnc3cc(OC(F)F)c(F)cc3c2)CC1)C(F)(F)F [Example 66, 7-(Difluoromethoxy)-6-fluoro-N-(trans-4-((1,1-trifluoro-2-methylpropan-2-yl)amino)cyclohexyl)quinoline-3-carboxamide] | < 10
CC(N[C@H]1CC[C@H](NC(=O)c2cnc3cc(OC(F)F)c(F)cc3c2)CC1)C(F)F (stereo partly drawn) [Example 67, 7-(Difluoromethoxy)-N-(trans-4-((1,1-difluoropropan-2-yl)amino)cyclohexyl)-6-fluoroquinoline-3-carboxamide] | 10 to 79.4
O=C(NC1CCC(N2CCOCC2)CC1)c1cnc2cc(OC(F)F)c(F)cc2c1 (stereo not drawn) [Example 68, 7-(Difluoromethoxy)-6-fluoro-N-(4-morpholinocyclohexyl)quinoline-3-carboxamide trifluoroacetic Acid Salt] | 10 to 79.4
C[C@@H](N[C@H]1CC[C@H](NC(=O)c2cnc3cc(OC(F)F)c(F)cc3c2)CC1)C(F)F [Example 69, 7-(Difluoromethoxy)-N-(trans-4-(((R)-1,1-difluoropropan-2-yl)amino)cyclohexyl)-6-fluoroquinoline-3-carboxamide] | 10 to 79.4
C[C@H](N[C@H]1CC[C@H](NC(=O)c2cnc3cc(OC(F)F)c(F)cc3c2)CC1)C(F)F [Example 70, 7-(Difluoromethoxy)-N-(trans-4-(((S)-1,1-difluoropropan-2-yl)amino)cyclohexyl)-6-fluoroquinoline-3-carboxamide] | < 10
O=C(N[C@H]1CC[C@H](N2CC(F)(F)C2)CC1)c1cnc2cc(OC(F)F)c(F)cc2c1 [Example 71, N-(trans-4-(3,3-Difluoroazetidin-1-yl)cyclohexyl)-7-(difluoromethoxy)-6-fluoroquinoline-3-carboxamide] | 10 to 79.4
CCOC(=O)c1cnc(N2CCC(NC(=O)c3cnc4cc(OC(F)F)c(F)cc4c3)CC2)o1 [Example 72, Ethyl 2-(4-(7-(difluoromethoxy)-6-fluoroquinoline-3-carboxamido)piperidin-1-yl)oxazole-5-carboxylate] | 10 to 79.4
C[C@H](N[C@H]1C[C@H](NC(=O)c2cnc3cc(OC(F)F)c(F)cc3c2)C1)C(F)F [Example 73, 7-(Difluoromethoxy)-N-(trans-3-(((S)-1,1-difluoropropan-2-yl)amino)cyclobutyl)-6-fluoroquinoline-3-carboxamide] | 10 to 79.4
C[C@@H](N[C@H]1C[C@H](NC(=O)c2cnc3cc(OC(F)F)c(F)cc3c2)C1)C(F)F [Example 74, 7-(Difluoromethoxy)-N-(trans-3-(((R)-1,1-difluoropropan-2-yl)amino)cyclobutyl)-6-fluoroquinoline-3-carboxamide] | 10 to 79.4
CC(O)(CO[C@H]1CC[C@H](NC(=O)c2cnc3cc(OC(F)F)c(F)cc3c2)CC1)C(F)(F)F (stereo partly drawn) [Example 76, 7-(Difluoromethoxy)-6-fluoro-N-(trans-4-(3,3,3-trifluoro-2-hydroxy-2-methylpropoxy)cyclohexyl)quinoline-3-carboxamide] | 10 to 79.4
O=C(N[C@H]1CC[C@H](N[C@H](CO)C(F)(F)F)CC1)c1cnc2cc(OC(F)F)c(F)cc2c1 [Example 77, 7-(Difluoromethoxy)-6-fluoro-N-(trans-4-(((R)-1,1,1-trifluoro-3-hydroxypropan-2-yl)amino)cyclohexyl)quinoline-3-carboxamide] | 10 to 79.4
O=C(N[C@H]1CCN(CC2CCCC2)C1=O)c1cnc2cc(OC(F)F)c(F)cc2c1 [Example 78, (S)—N-(1-(Cyclopentylmethyl)-2-oxopyrrolidin-3-yl)-7-(difluoromethoxy)-6-fluoroquinoline-3-carboxamide] | 10 to 79.4
CC(C)C(O)CO[C@H]1CC[C@H](NC(=O)c2cnc3cc(OC(F)F)c(F)cc3c2)CC1 (stereo partly drawn) [Example 79, 7-(Difluoromethoxy)-6-fluoro-N-(trans-4-(2-hydroxy-3-methylbutoxy)cyclohexyl)quinoline-3-carboxamide] | 10 to 79.4
CCOC(=O)c1cnc(N2CC[C@H](NC(=O)c3cnc4cc(OC(F)F)c(F)cc4c3)C2)o1 [Example 80, (S)-Ethyl 2-(3-(7-(difluoromethoxy)-6-fluoroquinoline-3-carboxamido)pyrrolidin-1-yl)oxazole-5-carboxylate trifluoroacetic acid salt] | 10 to 79.4
CC[C@]1(O)CC[C@H](NC(=O)c2cnc3cc(OC(F)F)c(F)cc3c2)CC1 [Example 81, 7-(Difluoromethoxy)-N-((1r,4r)-4-ethyl-4-hydroxycyclohexyl)-6-fluoroquinoline-3-carboxamide] | 10 to 79.4
CCOC(=O)c1coc(N2CC(NC(=O)c3cnc4cc(OC(F)F)c(F)cc4c3)C2)n1 [Example 82, Ethyl 2-(3-(7-(difluoromethoxy)-6-fluoroquinoline-3-carboxamido)azetidin-1-yl)oxazole-4-carboxylate] | 10 to 79.4
CCOC(=O)c1cnc(N[C@H]2C[C@H](NC(=O)c3cnc4cc(OC(F)F)c(F)cc4c3)C2)o1 [Example 83, Ethyl 2-((trans-3-(7-(difluoromethoxy)-6-fluoroquinoline-3-carboxamido)cyclobutyl)amino)oxazole-5-carboxylate] | 10 to 79.4

SMILES | IC50 [nM]
CCOC(=O)c1cnc(N2CC(NC(=O)c3cnc4cc(OC(F)F)c(F)cc4c3)C2)o1 [Example 84, Ethyl 2-(3-(7-(difluoromethoxy)-6-fluoroquinoline-3-carboxamido)azetidin-1-yl)oxazole-5-carboxylate] | 10 to 79.4
O=C(N[C@H]1CC[C@H](N[C@@H](CO)C(F)(F)F)CC1)c1cnc2cc(OC(F)F)c(F)cc2c1 [Example 85, 7-(Difluoromethoxy)-6-fluoro-N-(trans-4-(((S)-1,1,1-trifluoro-3-hydroxypropan-2-yl)amino)cyclohexyl)quinoline-3-carboxamide] | 10 to 79.4
COC(=O)[C@H]1CC[C@H](NC(=O)c2cnc3cc(OC(F)F)c(F)cc3c2)CC1 [Example 86, trans-Methyl 4-(7-(difluoromethoxy)-6-fluoroquinoline-3-carboxamido)cyclohexanecarboxylate] | < 10
N#C[C@H]1CC[C@H](NC(=O)c2cnc3cc(OC(F)F)c(F)cc3c2)CC1 [Example 87, N-(trans-4-Cyanocyclohexyl)-7-(difluoromethoxy)-6-fluoroquinoline-3-carboxamide] | 10 to 79.4
CCOC(=O)C[C@H]1CC[C@H](NC(=O)c2cnc3cc(OC(F)F)c(F)cc3c2)CC1 [Example 88, Ethyl 2-(trans-4-(7-(difluoromethoxy)-6-fluoroquinoline-3-carboxamido)cyclohexyl)acetate] | 10 to 79.4
O=C(N[C@H]1CC[C@@H](N2CC(F)C2)CC1)c1cnc2cc(OC(F)F)c(F)cc2c1 [Example 89, 7-(Difluoromethoxy)-6-fluoro-N-(cis-4-(3-fluoroazetidin-1-yl)cyclohexyl)quinoline-3-carboxamide] | 100 to 1000
O=C(N[C@H]1CC[C@H](N2CC(F)C2)CC1)c1cnc2cc(OC(F)F)c(F)cc2c1 [Example 90, 7-(Difluoromethoxy)-6-fluoro-N-(trans-4-(3-fluoroazetidin-1-yl)cyclohexyl)quinoline-3-carboxamide] | 10 to 79.4
O=C(N[C@H]1CC[C@@H](N2CC(O)(C(F)(F)F)C2)CC1)c1cnc2cc(OC(F)F)c(F)cc2c1 [Example 91, 7-(Difluoromethoxy)-6-fluoro-N-(cis-4-(3-hydroxy-3-(trifluoromethyl)azetidin-1-yl)cyclohexyl)quinoline-3-carboxamide] | 100 to 1000
O=C(N[C@H]1CC[C@H](N2CC(O)(C(F)(F)F)C2)CC1)c1cnc2cc(OC(F)F)c(F)cc2c1 [Example 92, 7-(Difluoromethoxy)-6-fluoro-N-(trans-4-(3-hydroxy-3-(trifluoromethyl)azetidin-1-yl)cyclohexyl)quinoline-3-carboxamide] | 10 to 79.4
C[C@]1(O)C[C@@H](NC(=O)c2cnc3cc(OC(F)F)c(F)cc3c2)C1 [Example 93, 7-(Difluoromethoxy)-6-fluoro-N-((1s,3s)-3-hydroxy-3-methylcyclobutyl)quinoline-3-carboxamide] | 100 to 1000
CS(=O)(=O)CCO[C@H]1CC[C@H](NC(=O)c2cnc3cc(OC(F)F)c(F)cc3c2)CC1 [Example 94, 7-(Difluoromethoxy)-6-fluoro-N-(trans-4-(2-(methylsulfonyl)ethoxy)cyclohexyl)quinoline-3-carboxamide] | 10 to 79.4
O=C(NC1CCN(c2ccccn2)CC1)c1cnc2cc(OC(F)F)c(F)cc2c1 [Example 95, 7-(Difluoromethoxy)-6-fluoro-N-(1-(pyridin-2-yl)piperidin-4-yl)quinoline-3-carboxamide] | < 10
O=C(NC1CCN(c2cccnc2)CC1)c1cnc2cc(OC(F)F)c(F)cc2c1 [Example 96, 7-(Difluoromethoxy)-6-fluoro-N-(1-(pyridin-3-yl)piperidin-4-yl)quinoline-3-carboxamide] | 10 to 79.4
N#Cc1cnc(N2CCC(NC(=O)c3cnc4cc(OC(F)F)c(F)cc4c3)CC2)o1 [Example 97, N-(1-(5-Cyanooxazol-2-yl)piperidin-4-yl)-7-(difluoromethoxy)-6-fluoroquinoline-3-carboxamide] | 10 to 79.4
N#Cc1ccc(N2CC(NC(=O)c3cnc4cc(OC(F)F)c(F)cc4c3)C2)nc1 [Example 98, N-(1-(5-Cyanopyridin-2-yl)azetidin-3-yl)-7-(difluoromethoxy)-6-fluoroquinoline-3-carboxamide] | 10 to 79.4
C[C@@H](NC[C@H]1CC[C@H](NC(=O)c2cnc3cc(OC(F)F)c(F)cc3c2)CC1)C(F)F [Example 99, 7-(Difluoromethoxy)-N-(trans-4-((((R)-1,1-difluoropropan-2-yl)amino)methyl)cyclohexyl)-6-fluoroquinoline-3-carboxamide] | 10 to 79.4
